The compounds below were run against KRAS G12C and cRAF (Ras-binding domain) interaction (Homo sapiens (Human), UniProt P01116, C118S/C51S/C80L/G12C) (assay: Inhibition of KRAS G12C and cRAF binding (AlphaScreen)). Conditions: additional exemplary compounds; KRAS G12C and cRAF binding; read-out: RAF1 RBD IC50.
Procedure: Compounds were diluted in 100% DMSO and each compound concentration was spotted at 200 nl/well onto low volume, white 384 well plates. […] Plates were incubated for 19-20 hours. A mixture of RBD and the AlphaScreen streptavidin donor and glutathione acceptor beads diluted in 25 mM Hepes, pH 7.4, 150 mM NaCl, 5 mM MgCl2, 0.01% TritonX-100 and 2% DMSO was then added at 10 ul/well and incubated for 60-90 minutes before the samples were read for emission at 570 nm after excitation of the donor beads at 680 nm. All incubations were performed at room temperature. […] IC50s were determined using nonlinear regression fit of [inhibitor]vs. response (4 parameters). […]

Sequence of KRAS G12C and cRAF (Ras-binding domain) interaction (P01116 other isoform, or with tags, fused parts or gaps G12C/C51S/C80L/C118S): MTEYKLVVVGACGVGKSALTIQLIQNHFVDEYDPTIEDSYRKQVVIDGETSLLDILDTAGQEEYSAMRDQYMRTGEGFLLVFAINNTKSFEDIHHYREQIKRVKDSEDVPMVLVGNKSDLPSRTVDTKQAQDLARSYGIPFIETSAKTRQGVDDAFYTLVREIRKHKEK

Compound	IC50
CC(C)C/C=C/S(=O)(=O)CCN(C)c1nc(OCC23CCCN2CCC3)nc2c1CCN(c1cccc3cccc(Cl)c13)C2	> 0.5 µM
C=CC(=O)N1CC(CN(C)c2nc(OCC34CCCN3CCC4)nc3c2CCN(c2cccc4cccc(Cl)c24)C3)C1	0.1 to 0.5 µM
C=CC(=O)N1CC(CN(C)c2nc(OC[C@@]34CCCN3C[C@H](F)C4)nc3c2CCN(c2cccc4cccc(Cl)c24)C3)C1	0.1 to 0.5 µM
CN(C)C(=O)/C=C/C(=O)N1CC[C@@H](N(C)c2nc(OCC34CCCN3CCC4)nc3c2CCN(c2cccc4cccc(Cl)c24)C3)C1	> 0.5 µM
Cc1nccc(/C=C/C(=O)N2CC3CC(C2)N3c2nc(OC[C@@]34CCCN3C[C@H](F)C4)nc3c(F)c(-c4cccc5cccc(Cl)c45)ncc23)n1	> 0.5 µM
Cc1nccc(/C=C/C(=O)N2C3CC2CN(c2nc(OC[C@@]45CCCN4C[C@H](F)C5)nc4c(F)c(-c5cccc6cccc(Cl)c56)ncc24)C3)n1	> 0.5 µM
CC(C)c1noc(/C=C/C(=O)N2CC3CC(C2)N3c2nc(OC[C@@]34CCCN3C[C@H](F)C4)nc3c(F)c(-c4cccc5cccc(Cl)c45)ncc23)n1	> 0.5 µM
CC(C)c1noc(/C=C/C(=O)N2C3CC2CN(c2nc(OC[C@@]45CCCN4C[C@H](F)C5)nc4c(F)c(-c5cccc6cccc(Cl)c56)ncc24)C3)n1	> 0.5 µM
CC(C)c1noc(/C=C/C(=O)N2C[C@H]3C[C@@H]2CN3c2nc(OC[C@@]34CCCN3C[C@H](F)C4)nc3c(F)c(-c4cccc5cccc(Cl)c45)ncc23)n1	> 0.5 µM
CN(CC1(C)CN(C#N)C1)c1nc(OC[C@@H]2CCCN2C)nc2c1CCN(c1cccc3cccc(Cl)c13)C2	> 0.5 µM
Cc1nccc(/C=C/C(=O)N2CC3(C2)CN(c2nc(OC[C@@]45CCCN4C[C@H](F)C5)nc4c(F)c(-c5cccc6cccc(Cl)c56)ncc24)C3)n1	> 0.5 µM
Cc1nccc(/C=C/C(=O)N2CCC3(C2)CN(c2nc(OC[C@@]45CCCN4C[C@H](F)C5)nc4c(F)c(-c5cccc6cccc(Cl)c56)ncc24)C3)n1	> 0.5 µM
C=CS(=O)(=O)CCN(C)c1nc(OC[C@@H]2CCCN2C)nc2c(F)c(-c3cccc4cccc(Cl)c34)ncc12	0.1 to 0.5 µM
Cc1nccc(/C=C/C(=O)N2CCCN(c3nc(OC[C@@]45CCCN4C[C@H](F)C5)nc4c(F)c(-c5cccc6cccc(Cl)c56)ncc34)CC2)n1	> 0.5 µM
O=C(/C=C/CN1CCOCC1)N1CCCN(c2nc(OC[C@@]34CCCN3C[C@H](F)C4)nc3c(F)c(-c4cccc5cccc(Cl)c45)ncc23)CC1	> 0.5 µM
C=CS(=O)(=O)[C@H]1C[C@H](N(C)c2nc(OCC34CCCN3CCC4)nc3c2CCN(c2cccc4cccc(Cl)c24)C3)C1	0.1 to 0.5 µM
O=C(/C=C/CN1CCOCC1)N1CC2(C1)CN(c1nc(OC[C@@]34CCCN3C[C@H](F)C4)nc3c(F)c(-c4cccc5cccc(Cl)c45)ncc13)C2	> 0.5 µM
CN(CCC1CN(C#N)C1)c1nc(OCC23CCCN2CCC3)nc2c1CCN(c1cccc3cccc(Cl)c13)C2	0.1 to 0.5 µM
O=C(/C=C/CN1CCOCC1)N1CC2CC(C1)N2c1nc(OC[C@@]23CCCN2C[C@H](F)C3)nc2c(F)c(-c3cccc4cccc(Cl)c34)ncc12	> 0.5 µM
O=C(/C=C/CN1CCOCC1)N1C2CC1CN(c1nc(OC[C@@]34CCCN3C[C@H](F)C4)nc3c(F)c(-c4cccc5cccc(Cl)c45)ncc13)C2	> 0.5 µM
O=C(/C=C/CN1CCOCC1)N1C[C@H]2CC[C@@H](C1)N2c1nc(OC[C@@]23CCCN2C[C@H](F)C3)nc2c(F)c(-c3cccc4cccc(Cl)c34)ncc12	> 0.5 µM
O=C(/C=C/CN1CCOCC1)N1[C@@H]2CC[C@H]1CN(c1nc(OC[C@@]34CCCN3C[C@H](F)C4)nc3c(F)c(-c4cccc5cccc(Cl)c45)ncc13)C2	> 0.5 µM
Cc1nccc(/C=C/C(=O)N2C[C@H]3CC[C@@H](C2)N3c2nc(OC[C@@]34CCCN3C[C@H](F)C4)nc3c(F)c(-c4cccc5cccc(Cl)c45)ncc23)n1	> 0.5 µM
Cc1nccc(/C=C/C(=O)N2[C@@H]3CC[C@H]2CN(c2nc(OC[C@@]45CCCN4C[C@H](F)C5)nc4c(F)c(-c5cccc6cccc(Cl)c56)ncc24)C3)n1	> 0.5 µM
Cc1nccc(/C=C/C(=O)N2CCN(c3nc(OC[C@@]45CCCN4C[C@H](F)C5)nc4c(F)c(-c5cccc6cccc(Cl)c56)ncc34)C3CC32)n1 (some centres unmarked)	> 0.5 µM
O=C(/C=C/CN1C2CCC1COC2)N1CCN(c2nc(OC[C@@]34CCCN3C[C@H](F)C4)nc3c(F)c(-c4cccc5cccc(Cl)c45)ncc23)C2CC21 (some centres unmarked)	> 0.5 µM
COC/C=C/C(=O)N1CC[C@@H](N(C)c2nc(OCC34CCCN3CCC4)nc3c(F)c(-c4cccc5cccc(Cl)c45)ncc23)C1	0.01 to 0.1 µM
O=C(/C=C/CN1[C@@H]2CC[C@H]1COC2)N1CCN(c2nc(OC[C@@]34CCCN3C[C@H](F)C4)nc3c(F)c(-c4cccc5cccc(Cl)c45)ncc23)CC12CC2	> 0.5 µM
O=C(/C=C/CN1[C@@H]2CC[C@H]1COC2)N1CCN(c2nc(OC[C@@]34CCCN3C[C@H](F)C4)nc3c(F)c(-c4cccc5cccc(Cl)c45)ncc23)C2(CC2)C1	> 0.5 µM
C=CS(=O)(=O)CCN(C)c1nc(OCC23CCCN2CCC3)nc2c(F)c(-c3cccc4cccc(Cl)c34)ncc12	< 0.01 µM

Results, then the compound that gave them:

IC50	Compound
> 0.5 µM	C=CC(=O)CCN(C)c1nc(OC[C@@H]2CCCN2C)nc2c1CCN(c1cccc3ccccc13)C2
> 0.5 µM	C=CC(=O)CCCN(C)c1nc(OC[C@@H]2CCCN2C)nc2c1CCN(c1cccc3ccccc13)C2
0.1 to 0.5 µM	C=CC(=O)CCCCN(C)c1nc(OC[C@@H]2CCCN2C)nc2c1CCN(c1cccc3ccccc13)C2
> 0.5 µM	C=CC(=O)N1C[C@H](Nc2nc(OC[C@@]34CCCN3C[C@H](F)C4)nc3c(F)c(-c4cccc5cccc(Cl)c45)ncc23)[C@@H](C)C1
0.1 to 0.5 µM	CN(C)C/C=C/C(=O)N1CCC(N(C)c2nc(OC[C@@H]3CCCN3C)nc3c2CCN(c2cccc4cccc(Cl)c24)C3)C1 (some centres unmarked)
> 0.5 µM	Cc1nccc(/C=C/C(=O)N2C[C@H]3C[C@@H]2CN3c2nc(OC[C@@]34CCCN3C[C@H](F)C4)nc3c(F)c(-c4cccc5cccc(Cl)c45)ncc23)n1
> 0.5 µM	Cc1nccc(/C=C/C(=O)N2CCC[C@H](Nc3nc(OC[C@@]45CCCN4C[C@H](F)C5)nc4c(F)c(-c5cccc6cccc(Cl)c56)ncc34)C2)n1
> 0.5 µM	Cc1nccc(/C=C/C(=O)N2CC3(CCN(c4nc(OC[C@@]56CCCN5C[C@H](F)C6)nc5c(F)c(-c6cccc7cccc(Cl)c67)ncc45)C3)C2)n1
> 0.5 µM	C=CC(=O)N1CC[C@@H](N(C)c2nc(OC[C@@]34CCCN3C[C@H](F)C4)nc3c(F)c(-c4cccc5c(Cl)cc(F)cc45)ncc23)C1
> 0.5 µM	Cc1nccc(/C=C/C(=O)N2CCC(N(C)c3nc(OC[C@@]45CCCN4C[C@H](F)C5)nc4c(F)c(-c5cccc6cccc(Cl)c56)ncc34)CC2)n1
> 0.5 µM	Cc1nccc(/C=C/C(=O)N2CCC23CN(c2nc(OC[C@@]45CCCN4C[C@H](F)C5)nc4c(F)c(-c5cccc6cccc(Cl)c56)ncc24)C3)n1
> 0.5 µM	C=CC(=O)N1CC[C@@H](N(CC(F)(F)F)c2nc(OC[C@@]34CCCN3C[C@H](F)C4)nc3c(F)c(-c4cccc5cccc(Cl)c45)ncc23)C1
> 0.5 µM	CN1CCC1/C=C/C(=O)N1CCCN(c2nc(OC[C@@]34CCCN3C[C@H](F)C4)nc3c(F)c(-c4cccc5cccc(Cl)c45)ncc23)CC1 (some centres unmarked)
> 0.5 µM	C=CC(=O)N1C[C@@H](C)[C@@H](N(C)c2nc(OC[C@@]34CCCN3C[C@H](F)C4)nc3c(F)c(-c4cccc5cccc(Cl)c45)ncc23)C1
> 0.5 µM	C=CC(=O)N1CC[C@@H](N(C)c2nc(OC[C@@]34CCCN3C[C@H](F)C4)nc3c(F)c(-c4cccc5c(C)c(F)ccc45)ncc23)C1
> 0.5 µM	Cc1nccc(/C=C/C(=O)N2C[C@@H]3CN(c4nc(OC[C@@]56CCCN5C[C@H](F)C6)nc5c(F)c(-c6cccc7cccc(Cl)c67)ncc45)C[C@@H]3C2)n1
> 0.5 µM	O=C(/C=C/CN1CCOCC1)N1CC2(CCN(c3nc(OC[C@@]45CCCN4C[C@H](F)C5)nc4c(F)c(-c5cccc6cccc(Cl)c56)ncc34)C2)C1
> 0.5 µM	C=CC(=O)N1CC[C@@H](N(C)c2nc(OC[C@@H]3CCCN3C)nc3c(F)c(-c4cccc5cccc(Cl)c45)ncc23)C1
0.1 to 0.5 µM	Cc1ncc(/C=C/C(=O)NCCN(C)c2nc(OCC34CCCN3CCC4)nc3c2CCN(c2cccc4cccc(Cl)c24)C3)o1
> 0.5 µM	O=C(/C=C/CN1CCOCC1)N1C[C@@H]2C[C@H]1CN2c1nc(OC[C@@]23CCCN2C[C@H](F)C3)nc2c(F)c(-c3cccc4cccc(Cl)c34)ncc12
< 0.01 µM	CN(C)C/C=C/S(=O)(=O)CCN(C)c1nc(OCC23CCCN2CCC3)nc2c1CCN(c1cccc3cccc(Cl)c13)C2
> 0.5 µM	O=C(/C=C/CN1CCOCC1)N1C[C@H]2C[C@@H]1CN2c1nc(OC[C@@]23CCCN2C[C@H](F)C3)nc2c(F)c(-c3cccc4cccc(Cl)c34)ncc12
0.1 to 0.5 µM	CN(CCS(=O)(=O)/C=C/CN1CC(F)C1)c1nc(OCC23CCCN2CCC3)nc2c1CCN(c1cccc3cccc(Cl)c13)C2
> 0.5 µM	CN(CC1CN(C#N)C1)c1nc(OC[C@@H]2CCCN2C)nc2c(F)c(-c3cccc4cccc(Cl)c34)ncc12
< 0.01 µM	CN(c1nc(OCC23CCCN2CCC3)nc2c(F)c(-c3cccc4cccc(Cl)c34)ncc12)[C@@H]1CCN(C#N)C1
0.01 to 0.1 µM	CN(C)C/C=C/C(=O)N1CC[C@@H](N(C)c2nc(OCC34CCCN3CCC4)nc3c2CCN(c2cccc4cccc(Cl)c24)C3)C1
0.01 to 0.1 µM	C=CC(=O)N1CC[C@@H](N(C)c2nc(OC[C@@]34CCCN3C[C@H](F)C4)nc3c(F)c(-c4cccc5cccc(C(F)(F)F)c45)ncc23)C1
0.1 to 0.5 µM	CN(CC1CN(C#N)C1)c1nc(OCC23CCCN2CCC3)nc2c1CCN(c1cccc3cccc(Cl)c13)C2
> 0.5 µM	C#Cc1c(F)ccc2cccc(-c3ncc4c(N(C)[C@@H]5CCN(C(=O)/C=C/c6ccncc6)C5)nc(OC[C@@]56CCCN5C[C@H](F)C6)nc4c3F)c12

From patent publication US20250019387A1 (Frontier Medicines Corporation, priority 0001, published 2025)
